{"source": "paper PMC4738305", "about": "“Metabolism and Disposition of Aditoprim in Swine, Broilers, Carp and Rats” (Scientific Reports, 2016)", "key": {"[1]": {"experiment": "Tissue distribution and elimination of total radioactivity (total residues) after oral ^3H-ADP for 7 d", "type": "in vivo, carp", "parameters": "Ke of total residues: unit not given here", "description": "(§1) (0.1 Ci/g) through oral gavage for 7 consecutive days. All the animals were housed on the basis of their group in the cages or aquaria throughout the whole study period. A group of animals was slaughtered through exsanguination under diethyl ether inhalation of anesthesia in the period of 6 h, 1, 3, 7, 14, and 21 d after the administration. The blood samples were immediately collected into the heparinized tubes and was centrifuged at 1920 × g at 4 °C for 10 min to obtain the plasma. The tissues from the heart, liver, spleen, lung, kidney, craw (broilers), stomach, intestine, fat, skin, muscle, thymus, pancreas, bile, bladder, hair (scale for carp), genital gland, adrenal glands, swim bladder (carp), brain, lymph, and bursa (broilers) were carefully excised and collected. The tissues were thoroughly rinsed with the deionized water to remove the residuary blood, blotted to dryness, and finally to perform the homogenization. In order to avoid cross-contamination the dissecting instruments were washed during the tissue procurements. The blank tissues were collected in order to provide control matrices. The total radioactivity levels in each sample were determined through LSC. The samples extracted from the plasma, bile, and tissues of the liver, kidney, muscle, and fat/skin were analyzed through LC/MS-IT-TOF and v. ARC radiometric detection for metabolite profiling.\n(§2) Measurements of the total radioactivity in each sample were conducted by Packard Tri-Carb 2900 TR liquid scintillation counter (PerkinElmer Life and Analytical Sciences). The detection time was 10 min for two cycles. The scintillation counter data were automatically corrected for counting efficiency by instrument-stored quench curve which was drawn with a series of sealed quenched […] standards. The actual radioactivity of each sample was calculated by subtracting the background value form the mean radioactivity in two blank samples. All the samples were analyzed in duplicate if the sample size allowed this. If the results were differed by more than 10% from the mean value, the samples were reanalyzed. The samples with LSC counts less than 2-fold of the level of the running background were considered to contain insufficient radioactivity for reliable quantification.\n(§3) Aliquots of liquid samples (urine, plasma, bile and raised water, 200 μL) were mixed with 10 mL of Ultima Gold^TM scintillation fluid for the direct analysis by LSC. Aliquots of solid samples (feces and tissues, 200 mg) were digested overnight with 2 mL tissue solubilizer at 50 °C in a shaking water bath, followed by adding 200 μL of 0.1 mol/L EDTA-Na and 200 μL of 30% H2O2, and was bathed at 50 °C for 2 h to bleach. The obtained transparent liquid were mixed with 10 mL of scintillation fluid and finally were counted by LSC. The digestion efficiency was determined by using the blank samples spiked with ^3 H standard for digestion, and the measured radioactivity content in the digested samples were adjusted by using the digestion efficiency values.\n(§4) The concentrations of ADP and/or its metabolites were analyzed by using the following equation: C = L/(2.22 × 10^9 × RM), where C is the concentration of ADP or/and its metabolites (mg/kg), L is the LSC count (dpm), R is the specific activity of the administered dose (0.1 Ci/g), and M is the weight or volume of samples (kg or L). The results are expressed as mean ± SD. The elimination kinetics of terminal phase for ADP and its metabolites were conducted by using the WinNonlin linear regression program (Pharsight corporation, Statistical consultants, Inc., Kentucky, USA)."}, "[2]": {"experiment": "Tissue distribution and elimination of total radioactivity (total residues) after oral ^3H-ADP for 7 d", "type": "in vivo, swine", "description": "as §1, §2, §3, §4"}}}
{"smiles": "[3H]c1c(Cc2cnc(N)nc2N)cc(OC)c(N(C)C)c1OC", "note": "[^3H-ADP]", "values": [{"measurement": "Ke of total residues", "setting": "[1]; carp Muscle", "result": 0.23}, {"measurement": "Concentrations of total residues", "setting": "[1]; carp Muscle, 0.25 d after 5 mg/kg b. w. for 7 days", "result": "2.26 ± 0.62", "unit": "mg/kg"}, {"measurement": "Concentrations of total residues", "setting": "[1]; carp Muscle, 1 d after 5 mg/kg b. w. for 7 days", "result": "1.96 ± 0.48", "unit": "mg/kg"}, {"measurement": "Concentrations of total residues", "setting": "[1]; carp Muscle, 3 d after 5 mg/kg b. w. for 7 days", "result": "0.96 ± 0.10", "unit": "mg/kg"}, {"measurement": "Concentrations of total residues", "setting": "[1]; carp Muscle, 7 d after 5 mg/kg b. w. for 7 days", "result": "0.43 ± 0.09", "unit": "mg/kg"}, {"measurement": "Concentrations of total residues", "setting": "[1]; carp Muscle, 14 d after 5 mg/kg b. w. for 7 days", "result": "0.08 ± 0.00", "unit": "mg/kg"}, {"measurement": "Ke of total residues", "setting": "[1]; carp Roe", "result": 0.16}, {"measurement": "Concentrations of total residues", "setting": "[1]; carp Roe, 0.25 d after 5 mg/kg b. w. for 7 days", "result": "4.74 ± 1.03", "unit": "mg/kg"}, {"measurement": "Concentrations of total residues", "setting": "[1]; carp Roe, 1 d after 5 mg/kg b. w. for 7 days", "result": "3.86 ± 0.76", "unit": "mg/kg"}, {"measurement": "Concentrations of total residues", "setting": "[1]; carp Roe, 3 d after 5 mg/kg b. w. for 7 days", "result": "2.24 ± 0.36", "unit": "mg/kg"}, {"measurement": "Concentrations of total residues", "setting": "[1]; carp Roe, 7 d after 5 mg/kg b. w. for 7 days", "result": "0.85 ± 0.40", "unit": "mg/kg"}, {"measurement": "Concentrations of total residues", "setting": "[1]; carp Roe, 14 d after 5 mg/kg b. w. for 7 days", "result": "0.47 ± 0.13", "unit": "mg/kg"}, {"measurement": "Concentrations of total residues", "setting": "[1]; carp Roe, 21 d after 5 mg/kg b. w. for 7 days", "result": "0.09 ± 0.01", "unit": "mg/kg"}, {"measurement": "Ke of total residues", "setting": "[1]; carp Scales", "result": 0.24}, {"measurement": "Concentrations of total residues", "setting": "[1]; carp Scales, 0.25 d after 5 mg/kg b. w. for 7 days", "result": "2.59 ± 0.32", "unit": "mg/kg"}, {"measurement": "Concentrations of total residues", "setting": "[1]; carp Scales, 1 d after 5 mg/kg b. w. for 7 days", "result": "2.01 ± 0.45", "unit": "mg/kg"}, {"measurement": "Concentrations of total residues", "setting": "[1]; carp Scales, 3 d after 5 mg/kg b. w. for 7 days", "result": "0.80 ± 0.04", "unit": "mg/kg"}, {"measurement": "Concentrations of total residues", "setting": "[1]; carp Scales, 7 d after 5 mg/kg b. w. for 7 days", "result": "0.29 ± 0.07", "unit": "mg/kg"}, {"measurement": "Concentrations of total residues", "setting": "[1]; carp Scales, 14 d after 5 mg/kg b. w. for 7 days", "result": "0.06 ± 0.01", "unit": "mg/kg"}, {"measurement": "Ke of total residues", "setting": "[1]; carp Skin", "result": 0.29}, {"measurement": "Concentrations of total residues", "setting": "[1]; carp Skin, 0.25 d after 5 mg/kg b. w. for 7 days", "result": "3.66 ± 0.62", "unit": "mg/kg"}, {"measurement": "Concentrations of total residues", "setting": "[1]; carp Skin, 1 d after 5 mg/kg b. w. for 7 days", "result": "2.82 ± 0.91", "unit": "mg/kg"}, {"measurement": "Concentrations of total residues", "setting": "[1]; carp Skin, 3 d after 5 mg/kg b. w. for 7 days", "result": "1.48 ± 0.16", "unit": "mg/kg"}, {"measurement": "Concentrations of total residues", "setting": "[1]; carp Skin, 7 d after 5 mg/kg b. w. for 7 days", "result": "0.87 ± 0.17", "unit": "mg/kg"}, {"measurement": "Concentrations of total residues", "setting": "[1]; carp Skin, 14 d after 5 mg/kg b. w. for 7 days", "result": "0.07 ± 0.01", "unit": "mg/kg"}, {"measurement": "Ke of total residues", "setting": "[1]; carp Spleen", "result": 0.23}, {"measurement": "Concentrations of total residues", "setting": "[1]; carp Spleen, 0.25 d after 5 mg/kg b. w. for 7 days", "result": "63.23 ± 2.89", "unit": "mg/kg"}, {"measurement": "Concentrations of total residues", "setting": "[1]; carp Spleen, 1 d after 5 mg/kg b. w. for 7 days", "result": "27.12 ± 4.89", "unit": "mg/kg"}, {"measurement": "Concentrations of total residues", "setting": "[1]; carp Spleen, 3 d after 5 mg/kg b. w. for 7 days", "result": "8.17 ± 0.59", "unit": "mg/kg"}, {"measurement": "Concentrations of total residues", "setting": "[1]; carp Spleen, 7 d after 5 mg/kg b. w. for 7 days", "result": "0.73 ± 0.17", "unit": "mg/kg"}, {"measurement": "Concentrations of total residues", "setting": "[1]; carp Spleen, 14 d after 5 mg/kg b. w. for 7 days", "result": "0.25 ± 0.05", "unit": "mg/kg"}, {"measurement": "Concentrations of total residues", "setting": "[1]; carp Spleen, 21 d after 5 mg/kg b. w. for 7 days", "result": "0.03 ± 0.00", "unit": "mg/kg"}, {"measurement": "Ke of total residues", "setting": "[2]; swine Adrenal", "result": 0.28}, {"measurement": "Ke of total residues", "setting": "[2]; swine Bile", "result": 0.71}, {"measurement": "Ke of total residues", "setting": "[2]; swine Bladder", "result": 0.50}, {"measurement": "Ke of total residues", "setting": "[2]; swine Blood", "result": 0.48}, {"measurement": "Ke of total residues", "setting": "[2]; swine Clothing hair", "result": 0.17}, {"measurement": "Ke of total residues", "setting": "[2]; swine Fat", "result": 0.20}, {"measurement": "Ke of total residues", "setting": "[2]; swine Heart", "result": 0.29}, {"measurement": "Ke of total residues", "setting": "[2]; swine Kidney", "result": 0.21}, {"measurement": "Ke of total residues", "setting": "[2]; swine Large Intestine", "result": 0.47}, {"measurement": "Ke of total residues", "setting": "[2]; swine Liver", "result": 0.16}, {"measurement": "Ke of total residues", "setting": "[2]; swine Lung", "result": 0.28}, {"measurement": "Ke of total residues", "setting": "[2]; swine Lymph", "result": 0.46}, {"measurement": "Ke of total residues", "setting": "[2]; swine Muscle", "result": 0.41}, {"measurement": "Ke of total residues", "setting": "[2]; swine Pancreas", "result": 0.27}, {"measurement": "Ke of total residues", "setting": "[2]; swine Skin", "result": 0.42}, {"measurement": "Ke of total residues", "setting": "[2]; swine Small Intestine", "result": 0.54}, {"measurement": "Ke of total residues", "setting": "[2]; swine Spleen", "result": 0.20}, {"measurement": "Ke of total residues", "setting": "[2]; swine Stomach", "result": 0.52}, {"measurement": "Ke of total residues", "setting": "[2]; swine Thymus", "result": 0.37}]}
